From publication PMC9352027, “Targeting lipid biosynthesis pathways for hepatitis B virus cure” (PLoS ONE, 2022)
Read-outs that look alike come from different tables or passages of the source.

Columns and labels:
[1] = tested on: HBsAg secretion in HBV-infected HepG2-NTCP cells; assay: microbe, parasite or virus in culture; format: cell-based, Hepatitis B virus genotype D (AD38); conditions: for EC50: read-out: HBsAg, EC50; for inhibition of HBsAg secretion: maximal (up to)
Description: (§1) Production of wild-type HBV virions from HepAD38 cells was performed as previously described. HepG2-NTCP cells were bulk plated on collagen coated flasks at a density of 6x10^6 cells/ T175 flask. Following a 3-day incubation at 37°C, cells were infected with genotype D (AD38) virus at […] in the presence of 4% PEG8000 and 2.5% DMSO. HepG2-NTCP cells were washed 3 times with OPTI-MEM and maintained in Dulbecco’s modified Eagle’s medium (DMEM) supplemented with 2% FBS and 2.5% DMSO for the following 4 days. HBV-infected HepG2-NTCP cells were trypsinized, resuspended in DMEM supplemented with 2% FBS and 1% DMSO, and seeded onto serially diluted small molecule inhibitors at a 0.5% final DMSO concentration (S1 Table) in 384-well collagen coated plates at a density of 20,000 cells/well for 3 additional days.
(§2) Cell culture supernatant (3 μL) was transferred to two 1536-well plates and HBsAg and HBeAg levels subsequently measured by HTRF (Cisbio). HBsAg was measured using Terbium conjugated (XTL-17) and D2 receptor conjugated (XTL19) anti-HBsAg antibodies, while HBeAg was measured using Terbium conjugated (GWB-F19420, Genway Biotech) and D2 receptor conjugated (GWB-24DEF, Genway Biotech) anti-HBeAg antibodies. […] was measured using an Envision plate reader at emissions of 665 nm and 615 nm. The ratio of 665/615 was used to plot compound dose response curves and EC50 values were calculated from the fit of the dose−response curves to a four-parameter equation.
(§3) (A) Schematic overview of the pathways involved in lipid biosynthesis, such as DNL, TG esterification and cholesterol biosynthesis. […] (B-D) HepG2-NTCP cells infected with HBV for three days were treated with selected compounds in an eight-point dose response. After three days of treatment, extracellular HBsAg and HBeAg levels as well as cell viability were measured.

[2] = tested on: HBeAg in HBV-infected HepG2-NTCP cells; assay: microbe, parasite or virus in culture; format: cell-based, Hepatitis B virus genotype D (AD38); conditions: read-out: HBeAg, EC50
Description: as §1, §2, §3

[3] = tested on: HBV-infected HepG2-NTCP cells; assay: Cell viability by CellTiter Glo; format: cell-based, human; conditions: three days of treatment
Description: as §1
(§4) Cells were analyzed for cell viability by addition of CellTiter Glo (Promega) to the assay plates and analyzed using an Envision plate reader (Perkin Elmer). CC50 values were calculated from the fit of the dose−response curves to a four-parameter equation. All CC50 values represent geometric mean values of a minimum of four determinations.
as §3

[4] = Cell viability by CellTiter Glo; format: cell-based, human; conditions: human; HBV-infected HepG2-NTCP cells, three days of treatment
Description: as §1, §4, §3

ACC1 and ACC2 = tested on: ACC1 and ACC2; design: method as in PMID 29705265, PMID 30059671; conditions: cited from earlier work
[5] = HBV-infected HepG2-NTCP cells, three days of treatment, extracellular

| Compound | EC50 [1, 5] [µM] | EC50 [2, 5] [µM] | CC50 [3] [µM] | EC50 ([1]; Hepatitis B virus, 72 h) [µM] | EC50 ([2]; Hepatitis B virus, 72 h) [µM] | CC50 at 3 days [4] [µM] | other results |
| --- | --- | --- | --- | --- | --- | --- | --- |
| CC1=NN(c2ccc(OC(F)F)c(-c3cccnc3)c2)C(=O)C1C(=O)Nc1cccc(C(C)(F)F)c1 (stereo not shown) [ACSS2 Inhibitor, N-(3-(1,1-difluoroethyl)phenyl)-1-(4-(difluoromethoxy)-3-(pyridin-3-yl)phenyl)-3-methyl-5-oxo-4,5-dihydro-1H-pyrazole-4-carboxamide] | > 10 | > 10 | > 10 |  |  |  |  |
| O=C(O)c1ccccc1NS(=O)(=O)c1ccc(Cl)c([N+](=O)[O-])c1 [CPT2 Inhibitor, 2-((4-chloro-3-nitrophenyl)sulfonamido)benzoic acid] | > 10 | > 10 | > 10 |  |  |  |  |
| CCCCCCCCc1ccc(CC[C@](N)(CO)COP(=O)(O)O)cc1 [FTY720 (S)-phosphate, (S)-2-amino-2-(hydroxymethyl)-4-(4-octylphenyl)butyl dihydrogen phosphate] | > 10 | > 10 | > 10 |  |  |  |  |
| C[C@H]1CCN1c1nc(N2C[C@@H]3[C@@H](CC(=O)O)[C@@H]3C2)cc(C(F)(F)F)n1 [KHK Inhibitor, 2-((1R,5S,6R)-3-(2-((S)-2-methylazetidin-1-yl)-6-(trifluoromethyl)pyrimidin-4-yl)-3-azabicyclo[3.1.0]hexan-6-yl)acetic acid] | > 10 | > 10 |  |  |  |  |  |
| O=C(O)C[C@H]1CC[C@H](c2ccc(-c3ccc(Nc4ccc(C(F)(F)F)nc4)cn3)cc2)CC1 [Pradagilast, 2-((1r,4r)-4-(4-(5-((6-(trifluoromethyl)pyridin-3-yl)amino)pyridin-2-yl)phenyl)cyclohexyl)acetic acid] |  |  |  | > 10 | > 10 | > 10 |  |
| CCOC(=O)c1ccc(CN(Cc2ccc(-c3cccc(S(C)(=O)=O)c3)cc2)S(=O)(=O)c2c(C)cc(C)cc2C)o1 [LXR Inverse Agonist, ethyl 5-(((2,4,6-trimethyl-N-((3'-(methylsulfonyl)-[1,1'-biphenyl]-4-yl)methyl)phenyl)sulfonamido)methyl)furan-2-carboxylate] | > 10 | > 10 | > 10 |  |  |  |  |
| Cc1cc(C)c(-c2[nH]c(C3CC3)nc2C)cc1C(=O)N1CC(F)(c2ccc(C#N)cc2)C1 [FASN inhibitor, 4-(1-(5-(2-cyclopropyl-4-methyl-1H-imidazol-5-yl)-2,4-dimethylbenzoyl)-3-fluoroazetidin-3-yl)benzonitrile] | 0.081 | > 10 | > 10 |  |  |  | selectivity HBsAg versus HBeAg ([1]; HBV-infected HepG2-NTCP cells): selective for HBsAg; inhibition of HBsAg secretion ([1]; HBV-infected HepG2-NTCP cells): up to 80% |
| COC(=O)c1cc(Cl)c(O)c(S(=O)(=O)Nc2cc(-c3ccccc3)c(F)cc2F)c1 [ACLY Inhibitor, methyl 3-chloro-5-(N-(4,6-difluoro-[1,1'-biphenyl]-3-yl)sulfamoyl)-4-hydroxybenzoate] | > 10 | > 10 | > 10 |  |  |  |  |
| COc1ccccc1[C@H](Cn1c(=O)n(C(C)(C)C(=O)O)c(=O)c2c(C)c(-c3ncco3)sc21)OC1CCOCC1 [FIR, Firsocostat] |  |  |  |  |  |  | liver fat reduction (ACC1 and ACC2; observed clinically): ~ 30%; DNL inhibition (ACC1 and ACC2; partial target inhibition observed clinically): ~ 70% |
| CCOC(=O)[C@@]1(CCCCCCOc2ccc(Cl)cc2)CO1 [Etomoxir, ethyl (R)-2-(6-(4-chlorophenoxy)hexyl)oxirane-2-carboxylate] |  |  |  | > 10 | > 10 | > 10 |  |
| Cc1nn(C)c2nc(NNC(=O)Nc3cc(Cl)nc(Cl)c3)cc(C(C)C)c12 [JTE-013, N-(2,6-dichloropyridin-4-yl)-2-(4-isopropyl-1,3-dimethyl-1H-pyrazolo[3,4-b]pyridin-6-yl)hydrazine-1-carboxamide] | 6.7 | > 10 | > 10 |  |  |  |  |
| CC(C)N(C)c1nc2cc(C(=O)O)ccc2nc1-c1ccc(F)cc1 [BioE-115, 2-(4-fluorophenyl)-3-(isopropyl(methyl)amino)quinoxaline-6-carboxylic acid] | > 10 | > 10 | > 10 |  |  |  |  |
| CC1(NC(=O)c2ccc3c(-c4ccccc4Cl)cn(-c4ccc(F)cc4)c3c2)CCS(=O)(=O)C1 (stereo not shown) [DGAT2 Inhibitor, 3-(2-chlorophenyl)-1-(4-fluorophenyl)-N-(3-methyl-1,1-dioxidotetrahydrothiophen-3-yl)-1H-indole-6-carboxamide] | > 10 | > 10 | > 10 |  |  |  |  |
| Oc1ccc(Nc2nc(-c3ccc(Cl)cc3)cs2)cc1 [SKI-II, 4-((4-(4-chlorophenyl)thiazol-2-yl)amino)phenol] |  |  |  | 8.84 | > 10 | > 10 |  |
| CCCCCCCCCCCCCCCCCCCC(=O)N[C@H]1CC[C@@]2(C)[C@@H](C1)C[C@@H](O)[C@@H]1[C@@H]2C[C@H](O)[C@]2(C)[C@@H]([C@H](C)CCC(=O)O)CC[C@@H]12 [SCD1 Inhibitor, (R)-4-((3S,5S,7R,8R,9S,10S,12S,13R,14S,17R)-7,12-dihydroxy-3-icosanamido-10,13-dimethylhexadecahydro-1H-cyclopenta[a]phenanthren-17-yl)pentanoic acid] | > 10 | > 10 | > 10 |  |  |  |  |
| CCCCCCCCc1ccc(CCC(N)(CO)CO)cc1 [FTY720, 2-amino-2-(4-octylphenethyl)propane-1,3-diol] |  |  |  | > 10 | > 10 | > 10 |  |
| CCN(CC)Cc1ccc(C(=O)N(CCc2ccccc2OC)[C@@H]2CCNC2)cc1 [SKI-1/S1P inhibitor, (R)-4-((diethylamino)methyl)-N-(2-methoxyphenethyl)-N-(pyrrolidin-3-yl)benzamide] | 0.79 | > 10 | > 10 |  |  |  | selectivity HBsAg versus HBeAg ([1]; HBV-infected HepG2-NTCP cells): selective for HBsAg; inhibition of HBsAg secretion ([1]; HBV-infected HepG2-NTCP cells): up to 80% |
| CCCc1cc(-c2nc(-c3ccc(C)cc3)cs2)ccn1 [Fatostatin, 2-(2-propylpyridin-4-yl)-4-(p-tolyl)thiazole] |  |  |  | > 10 | > 10 | > 10 |  |
| Nc1ncnc2c1C(=O)N(c1ccc([C@H]3CC[C@H](CC(=O)O)CC3)cc1)CCO2 [DGAT1 Inhibitor, 2-((1r,4r)-4-(4-(4-amino-5-oxo-7,8-dihydropyrimido[5,4-f][1,4]oxazepin-6(5H)-yl)phenyl)cyclohexyl)acetic acid] | > 10 | > 10 |  |  |  |  |  |
| C=C(C)[C@@H]1CC[C@]2(CO)CC[C@]3(C)[C@H](CC[C@@H]4[C@@]5(C)CC[C@H](O)C(C)(C)[C@@H]5CC[C@]43C)[C@@H]12 [Betulin, (1R,3aS,5aR,5bR,7aR,9S,11aR,11bR,13aR,13bR)-3a-(hydroxymethyl)-5a,5b,8,8,11a-pentamethyl-1-(prop-1-en-2-yl)icosahydro-1H-cyclopenta[a]chrysen-9-ol] |  |  |  | > 10 | > 10 | > 10 |  |
